The term MIC denotes the smallest concentration in the dilution series that meets the test's criterion for growth inhibition.

Each structure is given as a SMILES string. Values after ≈ are worked out from the molar mass of the structure shown. Active and inactive are the calls of the source.

The subject of the first assay is Escherichia coli. Briefly: Antimicrobial activity against Escherichia coli ATCC 25922 after 18 to 20 hrs by microbroth dilution method. The assay is classed as functional.
Details: not given
As to `CO[C@@]1(NC(=O)CCCC(=O)C2=C(O)[C@@H](CC(C)C)NC2=O)C(=O)N2C(C(=O)O)=C(CSc3nnnn3C)CS[C@@H]21`, the MIC was above 200 µg/mL.

For `CO[C@@]1(NC(=O)C2SC(=C(C(N)=O)C(=O)O)S2)C(=O)N2C(C(=O)O)=C(CSc3nnnn3C)CS[C@@H]21` (some centres undefined) [CEFOTETAN], 1.56 µg/mL (≈ 2.71 µM) was the least that counted as inhibitory (MIC).

Another assay has as its system Escherichia coli. The assay can be described thus: Antimicrobial activity against Escherichia coli BW25113 after 18 to 20 hrs by microbroth dilution method. The assay is classed as functional.
Details: not given
(Broth dilution looks for growth in wells or tubes with falling amounts of substance.)
In the case of `CO[C@@]1(NC(=O)CCCC(=O)C2=C(O)[C@@H](CC(C)C)NC2=O)C(=O)N2C(C(=O)O)=C(CSc3nnnn3C)CS[C@@H]21`, the lowest concentration to inhibit growth (MIC) was 50 µg/mL (≈ 82 µM).

In the case of `CO[C@@]1(NC(=O)C2SC(=C(C(N)=O)C(=O)O)S2)C(=O)N2C(C(=O)O)=C(CSc3nnnn3C)CS[C@@H]21` (some centres undefined) [CEFOTETAN], it took 25 µg/mL (≈ 43.4 µM) to inhibit growth (MIC).

A further assay relates to Escherichia coli. Briefly: Antimicrobial activity against Escherichia coli isolate SJ 5 after 18 to 20 hrs by microbroth dilution method. The class given is functional.
Details: not given
Compound `CO[C@@]1(NC(=O)CCCC(=O)C2=C(O)[C@@H](CC(C)C)NC2=O)C(=O)N2C(C(=O)O)=C(CSc3nnnn3C)CS[C@@H]21` yielded a minimum inhibitory concentration (MIC) of 200 µg/mL (≈ 328 µM).

With `CO[C@@]1(NC(=O)C2SC(=C(C(N)=O)C(=O)O)S2)C(=O)N2C(C(=O)O)=C(CSc3nnnn3C)CS[C@@H]21` (some centres undefined) [CEFOTETAN], the MIC stood at 12.5 µg/mL (≈ 21.7 µM).

For another assay, the system named is Escherichia coli. The assay can be described thus: Antimicrobial activity against Escherichia coli isolate SJ 1 after 18 to 20 hrs by microbroth dilution method. The assay is classed as functional.
Details: not given
`CO[C@@]1(NC(=O)CCCC(=O)C2=C(O)[C@@H](CC(C)C)NC2=O)C(=O)N2C(C(=O)O)=C(CSc3nnnn3C)CS[C@@H]21` registered a minimal inhibitory concentration (MIC) of 100 µg/mL (≈ 164 µM).

`CO[C@@]1(NC(=O)C2SC(=C(C(N)=O)C(=O)O)S2)C(=O)N2C(C(=O)O)=C(CSc3nnnn3C)CS[C@@H]21` (some centres undefined) [CEFOTETAN] had a minimum inhibitory concentration (MIC) of 0.39 µg/mL (≈ 0.678 µM).

In the next assay the test system is Escherichia coli. Briefly: Induction of proton motive force collapse in Escherichia coli BW25113 at 100 uM by flow cytometry. The class given is functional, organism-based.
Details: not given
Consider `CO[C@@]1(NC(=O)CCCC(=O)C2=C(O)[C@@H](CC(C)C)NC2=O)C(=O)N2C(C(=O)O)=C(CSc3nnnn3C)CS[C@@H]21`, for which the outcome was inactive.

The test system of a further assay is Escherichia coli. Briefly: Antimicrobial activity against Escherichia coli ATCC 35218 expressing TEM-1 beta lactamases after 18 to 20 hrs by microbroth dilution method. The class given is functional.
Details: not given
Compound `CO[C@@]1(NC(=O)CCCC(=O)C2=C(O)[C@@H](CC(C)C)NC2=O)C(=O)N2C(C(=O)O)=C(CSc3nnnn3C)CS[C@@H]21` displayed a minimum inhibitory concentration (MIC) of 50 µg/mL (≈ 82 µM).

As for `CO[C@@]1(NC(=O)C2SC(=C(C(N)=O)C(=O)O)S2)C(=O)N2C(C(=O)O)=C(CSc3nnnn3C)CS[C@@H]21` (some centres undefined) [CEFOTETAN], the minimum inhibitory concentration (MIC) was below 0.2 µg/mL.

Another assay has as its system Klebsiella pneumoniae. Briefly: Antimicrobial activity against Klebsiella pneumoniae isolate SJ 1 after 18 to 20 hrs by microbroth dilution method.
Details: not given
The class given is functional.
`CO[C@@]1(NC(=O)CCCC(=O)C2=C(O)[C@@H](CC(C)C)NC2=O)C(=O)N2C(C(=O)O)=C(CSc3nnnn3C)CS[C@@H]21`: the lowest concentration to inhibit growth (MIC) was 12.5 µg/mL (≈ 20.5 µM).

In turn, `CO[C@@]1(NC(=O)C2SC(=C(C(N)=O)C(=O)O)S2)C(=O)N2C(C(=O)O)=C(CSc3nnnn3C)CS[C@@H]21` (some centres undefined) [CEFOTETAN] came in with a minimum inhibitory concentration (MIC) below 0.2 µg/mL.

The subject of another assay is Pseudomonas aeruginosa. The assay can be described thus: Antimicrobial activity against Pseudomonas aeruginosa PAO1 after 18 to 20 hrs by microbroth dilution method. The class given is functional.
Details: not given
The compound `CO[C@@]1(NC(=O)CCCC(=O)C2=C(O)[C@@H](CC(C)C)NC2=O)C(=O)N2C(C(=O)O)=C(CSc3nnnn3C)CS[C@@H]21` came in with a minimum inhibitory concentration (MIC) above 200 µg/mL.

As for `CO[C@@]1(NC(=O)C2SC(=C(C(N)=O)C(=O)O)S2)C(=O)N2C(C(=O)O)=C(CSc3nnnn3C)CS[C@@H]21` (some centres undefined) [CEFOTETAN], the MIC was above 200 µg/mL.

For a further assay, the system named is Escherichia coli. The assay can be described thus: Antimicrobial activity against Escherichia coli isolate SJ 4 after 18 to 20 hrs by microbroth dilution method. The assay is classed as functional.
Details: not given
Turning to `CO[C@@]1(NC(=O)CCCC(=O)C2=C(O)[C@@H](CC(C)C)NC2=O)C(=O)N2C(C(=O)O)=C(CSc3nnnn3C)CS[C@@H]21`, the MIC is above 200 µg/mL.

In turn, `CO[C@@]1(NC(=O)C2SC(=C(C(N)=O)C(=O)O)S2)C(=O)N2C(C(=O)O)=C(CSc3nnnn3C)CS[C@@H]21` (some centres undefined) [CEFOTETAN] displayed a minimum inhibitory concentration (MIC) of 1.56 µg/mL (≈ 2.71 µM).

For a further assay, the system named is Proteus mirabilis. The assay can be described thus: Antimicrobial activity against Proteus mirabilis ATCC 25933 after 18 to 20 hrs by microbroth dilution method.
Details: not given
The assay is classed as functional.
Turning to `CO[C@@]1(NC(=O)CCCC(=O)C2=C(O)[C@@H](CC(C)C)NC2=O)C(=O)N2C(C(=O)O)=C(CSc3nnnn3C)CS[C@@H]21`, inhibition of growth (MIC) required 12.5 µg/mL (≈ 20.5 µM).

Consider `CO[C@@]1(NC(=O)C2SC(=C(C(N)=O)C(=O)O)S2)C(=O)N2C(C(=O)O)=C(CSc3nnnn3C)CS[C@@H]21` (some centres undefined) [CEFOTETAN], for which the minimum inhibitory concentration (MIC) was below 0.2 µg/mL.

Another assay has as its system Klebsiella pneumoniae. Briefly: Antimicrobial activity against Klebsiella pneumoniae isolate SJ 3 after 18 to 20 hrs by microbroth dilution method. The class given is functional.
Details: not given
For `CO[C@@]1(NC(=O)CCCC(=O)C2=C(O)[C@@H](CC(C)C)NC2=O)C(=O)N2C(C(=O)O)=C(CSc3nnnn3C)CS[C@@H]21`, the minimal inhibitory concentration (MIC) turned out to be 50 µg/mL (≈ 82 µM).

On to `CO[C@@]1(NC(=O)C2SC(=C(C(N)=O)C(=O)O)S2)C(=O)N2C(C(=O)O)=C(CSc3nnnn3C)CS[C@@H]21` (some centres undefined) [CEFOTETAN], for which inhibition of growth (MIC) required 0.39 µg/mL (≈ 0.678 µM).

For the next assay, the system named is Klebsiella pneumoniae. Briefly: Antimicrobial activity against Klebsiella pneumoniae isolate SJ 2 after 18 to 20 hrs by microbroth dilution method.
Details: not given
The class given is functional.
The compound `CO[C@@]1(NC(=O)CCCC(=O)C2=C(O)[C@@H](CC(C)C)NC2=O)C(=O)N2C(C(=O)O)=C(CSc3nnnn3C)CS[C@@H]21` registered an MIC of 50 µg/mL (≈ 82 µM).

In the case of `CO[C@@]1(NC(=O)C2SC(=C(C(N)=O)C(=O)O)S2)C(=O)N2C(C(=O)O)=C(CSc3nnnn3C)CS[C@@H]21` (some centres undefined) [CEFOTETAN], the minimal inhibitory concentration (MIC) is below 0.2 µg/mL.

The next assay relates to Escherichia coli. The assay can be described thus: Antimicrobial activity against Escherichia coli isolate SJ 2 after 18 to 20 hrs by microbroth dilution method.
Details: not given
The class given is functional.
`CO[C@@]1(NC(=O)CCCC(=O)C2=C(O)[C@@H](CC(C)C)NC2=O)C(=O)N2C(C(=O)O)=C(CSc3nnnn3C)CS[C@@H]21` returned a minimum inhibitory concentration (MIC) of 200 µg/mL (≈ 328 µM).

The compound `CO[C@@]1(NC(=O)C2SC(=C(C(N)=O)C(=O)O)S2)C(=O)N2C(C(=O)O)=C(CSc3nnnn3C)CS[C@@H]21` (some centres undefined) [CEFOTETAN] came in with an MIC of 1.56 µg/mL (≈ 2.71 µM).

For another assay, the system named is Klebsiella pneumoniae. Briefly: Antimicrobial activity against Klebsiella pneumoniae ATCC 33495 after 18 to 20 hrs by microbroth dilution method.
Details: not given
The assay is classed as functional.
As for `CO[C@@]1(NC(=O)CCCC(=O)C2=C(O)[C@@H](CC(C)C)NC2=O)C(=O)N2C(C(=O)O)=C(CSc3nnnn3C)CS[C@@H]21`, 100 µg/mL (≈ 164 µM) was the least that counted as inhibitory (MIC).

The compound `CO[C@@]1(NC(=O)C2SC(=C(C(N)=O)C(=O)O)S2)C(=O)N2C(C(=O)O)=C(CSc3nnnn3C)CS[C@@H]21` (some centres undefined) [CEFOTETAN] showed a minimal inhibitory concentration (MIC) below 0.2 µg/mL.

Another assay has as its system Escherichia coli. Briefly: Antimicrobial activity against Escherichia coli isolate SJ 3 after 18 to 20 hrs by microbroth dilution method. The assay is classed as functional.
Details: not given
`CO[C@@]1(NC(=O)CCCC(=O)C2=C(O)[C@@H](CC(C)C)NC2=O)C(=O)N2C(C(=O)O)=C(CSc3nnnn3C)CS[C@@H]21`: 100 µg/mL (≈ 164 µM) was the least that counted as inhibitory (MIC).

`CO[C@@]1(NC(=O)C2SC(=C(C(N)=O)C(=O)O)S2)C(=O)N2C(C(=O)O)=C(CSc3nnnn3C)CS[C@@H]21` (some centres undefined) [CEFOTETAN] displayed a minimal inhibitory concentration (MIC) of 0.78 µg/mL (≈ 1.36 µM).

Another assay deals with Klebsiella pneumoniae. The assay can be described thus: Antimicrobial activity against Klebsiella pneumoniae isolate SJ 5 after 18 to 20 hrs by microbroth dilution method. The class given is functional.
Details: not given
In the case of `CO[C@@]1(NC(=O)CCCC(=O)C2=C(O)[C@@H](CC(C)C)NC2=O)C(=O)N2C(C(=O)O)=C(CSc3nnnn3C)CS[C@@H]21`, the minimum inhibitory concentration (MIC) was 200 µg/mL (≈ 328 µM).

Take `CO[C@@]1(NC(=O)C2SC(=C(C(N)=O)C(=O)O)S2)C(=O)N2C(C(=O)O)=C(CSc3nnnn3C)CS[C@@H]21` (some centres undefined) [CEFOTETAN]: 1.56 µg/mL (≈ 2.71 µM) was the least that counted as inhibitory (MIC).

A further assay deals with Escherichia coli. Briefly: Antimicrobial activity against tolC deficient Escherichia coli JW5503-1 after 18 to 20 hrs by microbroth dilution method.
Details: not given
The assay is classed as functional.
On to `CO[C@@]1(NC(=O)CCCC(=O)C2=C(O)[C@@H](CC(C)C)NC2=O)C(=O)N2C(C(=O)O)=C(CSc3nnnn3C)CS[C@@H]21`, for which it took 12.5 µg/mL (≈ 20.5 µM) to inhibit growth (MIC).

Take `CO[C@@]1(NC(=O)C2SC(=C(C(N)=O)C(=O)O)S2)C(=O)N2C(C(=O)O)=C(CSc3nnnn3C)CS[C@@H]21` (some centres undefined) [CEFOTETAN]: the minimal inhibitory concentration (MIC) turned out to be 1.56 µg/mL (≈ 2.71 µM).

The test system of another assay is Escherichia coli. Briefly: Antimicrobial activity against Escherichia coli isolate SJ 6 after 18 to 20 hrs by microbroth dilution method. The class given is functional.
Details: not given
For `CO[C@@]1(NC(=O)CCCC(=O)C2=C(O)[C@@H](CC(C)C)NC2=O)C(=O)N2C(C(=O)O)=C(CSc3nnnn3C)CS[C@@H]21`, the MIC is above 200 µg/mL.

`CO[C@@]1(NC(=O)C2SC(=C(C(N)=O)C(=O)O)S2)C(=O)N2C(C(=O)O)=C(CSc3nnnn3C)CS[C@@H]21` (some centres undefined) [CEFOTETAN] registered an MIC of 25 µg/mL (≈ 43.4 µM).

The next assay concerns Klebsiella pneumoniae. The assay can be described thus: Antimicrobial activity against Klebsiella pneumoniae isolate SJ 4 after 18 to 20 hrs by microbroth dilution method.
Details: not given
The class given is functional.
Turning to `CO[C@@]1(NC(=O)CCCC(=O)C2=C(O)[C@@H](CC(C)C)NC2=O)C(=O)N2C(C(=O)O)=C(CSc3nnnn3C)CS[C@@H]21`, the minimum inhibitory concentration (MIC) was above 200 µg/mL.

Consider `CO[C@@]1(NC(=O)C2SC(=C(C(N)=O)C(=O)O)S2)C(=O)N2C(C(=O)O)=C(CSc3nnnn3C)CS[C@@H]21` (some centres undefined) [CEFOTETAN], for which the MIC was determined as 0.39 µg/mL (≈ 0.678 µM).

The test system of another assay is Acinetobacter baumannii. The assay can be described thus: Antimicrobial activity against Acinetobacter baumannii ATCC 19606 after 18 to 20 hrs by microbroth dilution method. To be noted: ATCC 19606 = CIP 70.34 = JCM 6841. The class given is functional.
Consider `CO[C@@]1(NC(=O)CCCC(=O)C2=C(O)[C@@H](CC(C)C)NC2=O)C(=O)N2C(C(=O)O)=C(CSc3nnnn3C)CS[C@@H]21`, for which the MIC is above 200 µg/mL.

As to `CO[C@@]1(NC(=O)C2SC(=C(C(N)=O)C(=O)O)S2)C(=O)N2C(C(=O)O)=C(CSc3nnnn3C)CS[C@@H]21` (some centres undefined) [CEFOTETAN], the MIC worked out at 100 µg/mL (≈ 174 µM).
